Drawing on BindingDB's records for doi:10.1021/jm1012193 (University of Bonn, 2012), this text covers IC50 for 1 compound.

For this test, the target named is T1, P2X purinoceptor 2 (Rattus norvegicus, UniProt P49653).
T1 sequence (P49653 whole entry): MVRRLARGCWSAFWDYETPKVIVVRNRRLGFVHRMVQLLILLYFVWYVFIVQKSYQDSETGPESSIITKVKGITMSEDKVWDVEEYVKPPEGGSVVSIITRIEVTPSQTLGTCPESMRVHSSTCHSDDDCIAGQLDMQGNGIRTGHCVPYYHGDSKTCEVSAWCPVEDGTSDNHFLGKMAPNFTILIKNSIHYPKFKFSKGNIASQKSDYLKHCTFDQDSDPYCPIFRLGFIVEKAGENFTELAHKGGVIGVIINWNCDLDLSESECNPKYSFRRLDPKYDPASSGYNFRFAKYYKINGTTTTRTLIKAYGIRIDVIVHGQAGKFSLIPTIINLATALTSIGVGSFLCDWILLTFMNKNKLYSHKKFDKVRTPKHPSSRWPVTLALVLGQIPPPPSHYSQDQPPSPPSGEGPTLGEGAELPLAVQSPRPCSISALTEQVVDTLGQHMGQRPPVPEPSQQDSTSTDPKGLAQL
The test is described as follows: Antagonist activity against rat […] receptor expressed in Xenopus laevis oocyte assessed as inhibition of alpha, beta-meATP-induced inward current by two-electrode voltage-clamp electrophysiology.

Structures are written as SMILES.

As for `Nc1ncnc2c1ncn2C1OC(COP(=O)(O)OP(=O)(O)OP(=O)(O)O)C2OC3(OC21)C([N+](=O)[O-])=CC([N+](=O)[O-])=CC3=[N+]([O-])[O-]` (stereo not drawn) [sodium(3a'R,4'R,6'R,6a'R)-4'-(6-amino-9H-purin-9-yl)-2,6-dinitro-6'-((oxido(oxido(phosphonatooxy)phosphoryloxy)phosphoryloxy)methyl)-3a',4',6',6a'-tetrahydrospiro[cyclohexa[2,5]diene-1,2'-furo[3,4-d][1,3]dioxole]-4-ylideneazinate], the IC50 was determined as 4 µM.
